Experimental data as given in PubChem BioAssay (NCI).
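Where inhibition never reached the appropriate level, the endpoint shown equals the highest concentration tested. Otherwise, values were interpolated linearly from a five-concentration, 48-hour dose response in 96-well plates. TGI is the concentration that stops growth completely.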

How the values were obtained:
Assay in all cases: NCI anticancer screen, dose series, 48 h
ACHN renal = tested on: ACHN renal
BT-549 breast = tested on: BT-549 breast
HOP-62 NSCLC = tested on: HOP-62 NSCLC
RPMI-8226 leukemia = tested on: RPMI-8226 leukemia
MOLT-4 leukemia = tested on: MOLT-4 leukemia
SK-MEL-2 melanoma = tested on: SK-MEL-2 melanoma
OVCAR-3 ovarian = tested on: OVCAR-3 ovarian
DU-145 prostate = tested on: DU-145 prostate
UO-31 renal = tested on: UO-31 renal
HCT-15 colon = tested on: HCT-15 colon
SK-MEL-5 melanoma = tested on: SK-MEL-5 melanoma
COLO 205 colon = tested on: COLO 205 colon
SNB-19 CNS = tested on: SNB-19 CNS
UACC-62 melanoma = tested on: UACC-62 melanoma
UACC-257 melanoma = tested on: UACC-257 melanoma
CAKI-1 renal = tested on: CAKI-1 renal
MDA-N = tested on: MDA-N
NCI-H23 lung = tested on: NCI-H23 lung
786-0 renal = tested on: 786-0 renal
OVCAR-8 ovarian = tested on: OVCAR-8 ovarian
KM12 colon = tested on: KM12 colon
A549 NSCLC = tested on: A549 NSCLC
MCF7 breast = tested on: MCF7 breast
OVCAR-5 ovarian = tested on: OVCAR-5 ovarian
HCT-116 colon = tested on: HCT-116 colon
K-562 leukemia = tested on: K-562 leukemia
SF-295 CNS = tested on: SF-295 CNS
PC-3 prostate = tested on: PC-3 prostate
MDA-MB-435 = tested on: MDA-MB-435
LOX IMVI melanoma = tested on: LOX IMVI melanoma
SW-620 colon = tested on: SW-620 colon
HOP-92 NSCLC = tested on: HOP-92 NSCLC
OVCAR-4 ovarian = tested on: OVCAR-4 ovarian
RXF 393 renal = tested on: RXF 393 renal
HL-60(TB) leukemia = tested on: HL-60(TB) leukemia
TK-10 renal = tested on: TK-10 renal
IGROV1 ovarian = tested on: IGROV1 ovarian
M14 melanoma = tested on: M14 melanoma
SF-268 CNS = tested on: SF-268 CNS
SR leukemia = tested on: SR leukemia
A498 renal = tested on: A498 renal
SN12C renal = tested on: SN12C renal
HS 578T breast = tested on: HS 578T breast
SNB-75 CNS = tested on: SNB-75 CNS
SF-539 CNS = tested on: SF-539 CNS
NCI-H226 lung = tested on: NCI-H226 lung
MALME-3M melanoma = tested on: MALME-3M melanoma
SK-MEL-28 melanoma = tested on: SK-MEL-28 melanoma
NCI-H522 lung = tested on: NCI-H522 lung
NCI/ADR-RES ovarian = tested on: NCI/ADR-RES ovarian
MDA-MB-231 breast = tested on: MDA-MB-231 breast
EKVX NSCLC = tested on: EKVX NSCLC
HT29 colon = tested on: HT29 colon
NCI-H460 lung = tested on: NCI-H460 lung
T-47D breast = tested on: T-47D breast
U251 CNS = tested on: U251 CNS
CCRF-CEM leukemia = tested on: CCRF-CEM leukemia

Measured: TGI

Cc1ccc(Cl)c2c(=O)c3ccc([N+](=O)[O-])cc3sc12
> 100 µM: ACHN renal | BT-549 breast | HOP-62 NSCLC | RPMI-8226 leukemia | MOLT-4 leukemia | SK-MEL-2 melanoma | OVCAR-3 ovarian | DU-145 prostate | UO-31 renal | HCT-15 colon | SK-MEL-5 melanoma | COLO 205 colon | SNB-19 CNS | UACC-62 melanoma | UACC-257 melanoma | CAKI-1 renal | MDA-N | NCI-H23 lung | 786-0 renal | OVCAR-8 ovarian | KM12 colon | A549 NSCLC | MCF7 breast | OVCAR-5 ovarian | HCT-116 colon | K-562 leukemia | SF-295 CNS | PC-3 prostate

COC(=O)[C@@H]1CN(C(=O)c2ccccc2)C(=O)N1
not listed: BT-549 breast | SK-MEL-2 melanoma | HCT-15 colon | COLO 205 colon | CAKI-1 renal | MCF7 breast
> 100 µM: all other assays above
